Experimental data from patent US9498483B2, “2,3,5-trisubstituted thiophene compounds and uses thereof” (priority 2010, dated 2016).

Legend:
HCV polymerase = target: T1, HCV polymerase (Hepatitis C virus genotype 1b, UniProt Q9WMX2); test: Polymerase assay of Biological Example 1 (IC50 values of Table 3); assay type: biochemical; conditions: IC50 values of Table 3, polymerase assay of Biological Example 1; read-out: NS5B-enzyme3
T1 construct: (His)6 (C); made in house; host or cells: XL-1 cells (E. coli, by own knowledge)

[1] = test system: HCV replicon I389luc-ubi-neo/NS3-3′/ET in ET (Huh-lucubineo-ET) cells; test: Replicon assay (Biological Example 2), luciferase readout; assay type: cell-based; conditions: Hepatitis C virus
Summary of the method: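 EC50 values come from Hill fits of % inhibition of replicon-driven firefly luciferase, relative to no-compound wells. Compounds were serially diluted (10 points, 3-fold, 0.1 nM–50 μM final, 0.5% DMSO) onto ET replicon cells and read after 48 h.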

[2] = ET cells, luciferase activity 48 hours after compound

O=C(O)c1sc(-c2ccc(Cl)cc2)cc1N1C(=O)CN(S(=O)(=O)c2ccc(N3CC4CC3CO4)nc2)C[C@H]1C1CCCCC1 (stereo partly drawn) [Compound 229, 5-(4-Chloro-phenyl)-3-{(R)-2-cyclohexyl-4-[6-(2-oxa-5-aza-bicyclo[2.2.1]hept-5-yl)-pyridine-3-sulfonyl]-6-oxo-piperazin-1-yl}-thiophene-2-carboxylic acid]
IC50 (HCV polymerase): 0.001 µM
IC50 [1, 2]: ≤ 0.1 µM

Cc1ccc(-c2cc(N3C(=O)CN(S(=O)(=O)c4cn(C)c(C)n4)C[C@H]3C3CCCCC3)c(C(=O)O)s2)cc1 [Compound 298, 3-[(R)-2-Cyclohexyl-4-(1,2-dimethyl-1H-imidazole-4-sulfonyl)-6-oxo-piperazin-1-yl]-5-p-tolyl-thiophene-2-carboxylic acid]
IC50 (HCV polymerase): 0.001 µM
IC50 [1, 2]: ≤ 0.1 µM

C[C@@H]1CCCN1c1ccc(S(=O)(=O)N2CC(=O)N(c3cc(-c4ccccc4)sc3C(=O)O)C(C3CCCCC3)C2)cc1 (stereo partly drawn) [Compound 127, 3-{2-Cyclohexyl-4-[4-((R)-2-methyl-pyrrolidin-1-yl)-benzenesulfonyl]-6-oxo-piperazin-1-yl}-5-phenyl-thiophene-2-carboxylic acid]
IC50 (HCV polymerase): 0.003 µM
IC50 [1, 2]: ≤ 0.1 µM

CC(C)(C)C#Cc1cc(N2C(=O)C3(CCOCC3)OC[C@H]2C2CCCCC2)c(C(=O)O)s1 [Compound 325, 3-((R)-3-Cyclohexyl-5-oxo-1,9-dioxa-4-aza-spiro[5.5]undec-4-yl)-5-(3,3-dimethyl-but-1-ynyl)-thiophene-2-carboxylic acid]
IC50 (HCV polymerase): 0.006 µM
IC50 [1, 2]: ≤ 0.1 µM

O=C1CC(=O)N(c2cc(-c3ccccc3)sc2C(=O)O)C(C2CCCCC2)C1 (stereo not drawn) [Compound 9, 3-(2-Cyclohexyl-4,6-dioxo-piperidin-1-yl)-5-phenyl-thiophene-2-carboxylic acid]
IC50 (HCV polymerase): 0.08 µM
IC50 [1, 2]: ≥ 5 µM

CC(C)(C)C#Cc1cc(N2C(=O)[C@](C)(CCC(C)(C)O)OC[C@H]2C2CCCCC2)c(C(=O)O)s1 [Compound 318, 3-[(2S,5R)-5-Cyclohexyl-2-(3-hydroxy-3-methyl-butyl)-2-methyl-3-oxo-morpholin-4-yl]-5-(3,3-dimethyl-but-1-ynyl)-thiophene-2-carboxylic acid]
IC50 (HCV polymerase): 0.014 µM
IC50 [1, 2]: ≤ 0.1 µM

CC(C)(C)C#Cc1cc(N2C(=O)CCCC[C@H]2C2CCCCC2)c(C(=O)O)s1 [Compound 335, 3-((S)-2-Cyclohexyl-7-oxo-azepan-1-yl)-5-(3,3-dimethyl-but-1-ynyl)-thiophene-2-carboxylic acid]
IC50 (HCV polymerase): 0.024 µM
IC50 ([1]; between 100 nM and 5.0 uM): 0.1 to 5 µM

N[C@H]1CC(=O)N(c2cc(-c3ccccc3)sc2C(=O)O)[C@H](C2CCCCC2)C1 [Compound 28, 3-((2S,4R)-4-Amino-2-cyclohexyl-6-oxo-piperidin-1-yl)-5-phenyl-thiophene-2-carboxylic acid]
IC50 (HCV polymerase): 0.226 µM
IC50 [1, 2]: ≥ 5 µM

Cc1ccc(-c2cc(N3C(=O)CN(S(=O)(=O)c4cnn(C)c4)C[C@H]3C3CCCCC3)c(C(=O)O)s2)cc1 [Compound 295, 3-[(R)-2-Cyclohexyl-4-(1-methyl-1H-pyrazole-4-sulfonyl)-6-oxo-piperazin-1-yl]-5-p-tolyl-thiophene-2-carboxylic acid]
IC50 (HCV polymerase): 0.004 µM
IC50 [1, 2]: ≤ 0.1 µM

O=C(N[C@H]1CC(=O)N(c2cc(-c3ccccc3)sc2C(=O)O)[C@H](C2CCCCC2)C1)c1ccccc1 [Compound 24, 3-((2S,4R)-4-Benzoylamino-2-cyclohexyl-6-oxo-piperidin-1-yl)-5-phenyl-thiophene-2-carboxylic acid]
IC50 (HCV polymerase): 0.0445 µM
IC50 ([1]; between 100 nM and 5.0 uM): 0.1 to 5 µM

O=C(O)c1sc(-c2ccccc2)cc1N1C(=O)CN(S(=O)(=O)c2ccc(C(F)(F)F)cc2)CC1C1CCCCC1 (stereo not drawn) [Compound 54, 3-[2-Cyclohexyl-6-oxo-4-(4-trifluoromethyl-benzenesulfonyl)-piperazin-1-yl]-5-phenyl-thiophene-2-carboxylic acid]
IC50 (HCV polymerase): 0.018 µM
IC50 ([1]; between 100 nM and 5.0 uM): 0.1 to 5 µM

O=C(O)c1sc(-c2ccccc2)cc1N1C(=O)CCCC1C1CCCCC1 (stereo not drawn) [Compound 4, 3-(2-Cyclohexyl-6-oxo-piperidin-1-yl)-5-phenyl-thiophene-2-carboxylic acid]
IC50 (HCV polymerase): 0.073 µM
IC50 ([1]; between 100 nM and 5.0 uM): 0.1 to 5 µM

O=C(O)c1sc(-c2ccccc2)cc1N1C(=O)CN(C(=O)c2ccccc2)C[C@H]1C1CCCCC1 [Compound 16, 3-((R)-4-Benzoyl-2-cyclohexyl-6-oxo-piperazin-1-yl)-5-phenyl-thiophene-2-carboxylic acid]
IC50 (HCV polymerase): 0.42 µM
IC50 [1, 2]: ≥ 5 µM

CC1(N)CCN(c2ccc(S(=O)(=O)N3CC(=O)N(c4cc(-c5ccccc5)sc4C(=O)O)[C@H](C4CCCCC4)C3)cn2)CC1 [Compound 138, 3-[(R)-4-(4-Amino-4-methyl-3,4,5,6-tetrahydro-2H-[1,2′]bipyridinyl-5′-sulfonyl)-2-cyclohexyl-6-oxo-piperazin-1-yl]-5-phenyl-thiophene-2-carboxylic acid]
IC50 (HCV polymerase): 0.001 µM
IC50 [1, 2]: ≤ 0.1 µM

O=C(O)c1sc(-c2ccccc2)cc1N1C(=O)CN(Cc2ccc(Cl)nc2)C[C@H]1C1CCCCC1 [Compound 267, 3-[(R)-4-(6-Chloro-pyridin-3-ylmethyl)-2-cyclohexyl-6-oxo-piperazin-1-yl]-5-phenyl-thiophene-2-carboxylic acid]
IC50 (HCV polymerase): 0.064 µM
IC50 ([1]; between 100 nM and 5.0 uM): 0.1 to 5 µM

Cn1nccc1S(=O)(=O)N1CC(=O)N(c2cc(C#CC(C)(C)C)sc2C(=O)O)[C@H](C2CCCCC2)C1 [Compound 254, 3-[(R)-2-Cyclohexyl-4-(2-methyl-2H-pyrazole-3-sulfonyl)-6-oxo-piperazin-1-yl]-5-(3,3-dimethyl-but-1-ynyl)-thiophene-2-carboxylic acid]
IC50 (HCV polymerase): 0.015 µM
IC50 ([1]; between 100 nM and 5.0 uM): 0.1 to 5 µM

CC(C)(C)C#Cc1cc(N2C(=O)C(CCO)CC[C@H]2C2CCCCC2)c(C(=O)O)s1 (single isomer, unassigned) [Compound 343]
IC50 (HCV polymerase): 0.001 µM
IC50 [1, 2]: ≤ 0.1 µM

COc1cccc(S(=O)(=O)N2CC(=O)N(c3cc(C#CC(C)(C)C)sc3C(=O)O)[C@H](C3CCCCC3)C2)c1 [Compound 257, 3-[(R)-2-Cyclohexyl-4-(3-methoxy-benzenesulfonyl)-6-oxo-piperazin-1-yl]-5-(3,3-dimethyl-but-1-ynyl)-thiophene-2-carboxylic acid]
IC50 (HCV polymerase): 0.002 µM
IC50 [1, 2]: ≤ 0.1 µM

CN(C)c1ccc(-c2ccc(S(=O)(=O)N3CC(=O)N(c4cc(-c5ccccc5)sc4C(=O)O)[C@H](C4CCCCC4)C3)cn2)cc1 [Compound 203, 3-{(R)-2-Cyclohexyl-4-[6-(4-dimethylamino-phenyl)-pyridine-3-sulfonyl]-6-oxo-piperazin-1-yl}-5-phenyl-thiophene-2-carboxylic acid]
IC50 (HCV polymerase): 0.001 µM
IC50 [1, 2]: ≤ 0.1 µM

CC(C)(C)C#Cc1cc(N2C(=O)COC[C@H]2C2CCCCC2)c(C(=O)NS(C)(=O)=O)s1 [Compound 309, N-[3-((R)-3-Cyclohexyl-5-oxo-morpholin-4-yl)-5-(3,3-dimethyl-but-1-ynyl)-thiophene-2-carbonyl]-methanesulfonamide]
IC50 (HCV polymerase): 0.054 µM
IC50 ([1]; between 100 nM and 5.0 uM): 0.1 to 5 µM

Cn1ccc(S(=O)(=O)N2CC(=O)N(c3cc(-c4ccc(Cl)cc4)sc3C(=O)O)[C@H](C3CCCCC3)C2)n1 [Compound 284, 5-(4-Chloro-phenyl)-3-[(R)-2-cyclohexyl-4-(1-methyl-1H-pyrazole-3-sulfonyl)-6-oxo-piperazin-1-yl]-thiophene-2-carboxylic acid]
IC50 (HCV polymerase): 0.003 µM
IC50 [1, 2]: ≤ 0.1 µM

O=C(O)c1sc(-c2ccccc2)cc1N1C(=O)CN(S(=O)(=O)c2ccc(N3CC4CCC(C3)O4)nc2)C[C@H]1C1CCCCC1 [Compound 216, 3-{(R)-2-Cyclohexyl-4-[6-(8-oxa-3-aza-bicyclo[3.2.1]oct-3-yl)-pyridine-3-sulfonyl]-6-oxo-piperazin-1-yl}-5-phenyl-thiophene-2-carboxylic acid]
IC50 (HCV polymerase): 0.001 µM
IC50 [1, 2]: ≤ 0.1 µM

CC(C)(C)C#Cc1cc(N2C(=O)[C@@H](CC(O)CO)OC[C@H]2C2CCCCC2)c(C(=O)O)s1 (stereo partly drawn) [Compound 10, 3-[(2R,5R)-5-Cyclohexyl-2-(2,3-dihydroxy-propyl)-3-oxo-morpholin-4-yl]-5-(3,3-dimethyl-but-1-ynyl)-thiophene-2-carboxylic acid]
IC50 (HCV polymerase): 0.003 µM
IC50 [1, 2]: ≤ 0.1 µM

CN(C)CCNc1ccc(S(=O)(=O)N2CC(=O)N(c3cc(-c4ccccc4)sc3C(=O)O)C(C3CCCCC3)C2)cn1 (stereo not drawn) [Compound 81, 3-{2-Cyclohexyl-4-[6-(2-dimethylamino-ethylamino)-pyridine-3-sulfonyl]-6-oxo-piperazin-1-yl}-5-phenyl-thiophene-2-carboxylic acid]
IC50 (HCV polymerase): 0.009 µM
IC50 [1, 2]: ≤ 0.1 µM

O=C(O)c1sc(-c2ccccc2)cc1N1C(=O)CN(S(=O)(=O)c2ccc(N3CCCCC3)nc2)C[C@H]1C1CCCCC1 [Compound 179, 3-[(R)-2-Cyclohexyl-6-oxo-4-(3,4,5,6-tetrahydro-2H-[1,2′]bipyridinyl-5′-sulfonyl)-piperazin-1-yl]-5-phenyl-thiophene-2-carboxylic acid]
IC50 (HCV polymerase): 0.001 µM
IC50 [1, 2]: ≤ 0.1 µM

Cc1ccccc1S(=O)(=O)N1CC(=O)N(c2cc(-c3ccccc3)sc2C(=O)O)C(C2CCCCC2)C1 (stereo not drawn) [Compound 58, 3-[2-Cyclohexyl-6-oxo-4-(toluene-2-sulfonyl)-piperazin-1-yl]-5-phenyl-thiophene-2-carboxylic acid]
IC50 (HCV polymerase): 0.088 µM
IC50 ([1]; between 100 nM and 5.0 uM): 0.1 to 5 µM

C[C@@H]1CN(c2ccc(S(=O)(=O)N3CC(=O)N(c4cc(-c5ccccc5)sc4C(=O)O)[C@H](C4CCCCC4)C3)cn2)C[C@H](C)O1 [Compound 167, 3-{(R)-2-Cyclohexyl-4-[6-((2R,6S)-2,6-dimethyl-morpholin-4-yl)-pyridine-3-sulfonyl]-6-oxo-piperazin-1-yl}-5-phenyl-thiophene-2-carboxylic acid]
IC50 (HCV polymerase): 0.0035 µM
IC50 [1, 2]: ≤ 0.1 µM
